Test results published in the supplement of paper PMC10307832.

How the values were obtained:
Assay in all cases: relative viability (nuclei count vs DMSO), 5 days (fraction); higher = more cells survive
[1] = compound: CCN(CC)CCNC(=O)c1c(C)[nH]c(/C=C2\C(=O)Nc3ccc(F)cc32)c1C [Sunitinib] + O=C(CCCCCCC(=O)Nc1ccccc1)NO [Vorinostat] (partner 1 µM)
How it was run: (§1)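 Relative viability was taken as the ratio of nuclei in treated wells to nuclei in vehicle wells. Lung cancer cell lines in 1536-well plates received compounds by pin tool one day after seeding, either one drug alone or a fixed anchor-drug dose plus five library-drug doses (not always all listed) in √10 steps. Nuclei were counted on 4× images after 5 days of treatment, and values are medians of duplicate plates.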

[2] = compound: CCN(CC)CCNC(=O)c1c(C)[nH]c(/C=C2\C(=O)Nc3ccc(F)cc32)c1C [Sunitinib] + CC(=O)c1c(C)c2cnc(Nc3ccc(N4CCNCC4)cn3)nc2n(C2CCCC2)c1=O [Palbociclib] (partner 0.5 µM)
How it was run: as §1

[3] = compound: CCN(CC)CCNC(=O)c1c(C)[nH]c(/C=C2\C(=O)Nc3ccc(F)cc32)c1C [Sunitinib] + NC(=O)Nc1cc(-c2cccc(F)c2)sc1C(=O)N[C@H]1CCCNC1 [AZD7762] (partner 0.2 µM)
How it was run: as §1

[4] = compound: CCN(CC)CCNC(=O)c1c(C)[nH]c(/C=C2\C(=O)Nc3ccc(F)cc32)c1C [Sunitinib] + C[C@@H](Oc1cc(-c2cnn(C3CCNCC3)c2)cnc1N)c1c(Cl)ccc(F)c1Cl [Crizotinib] (partner 1 µM)
How it was run: as §1

Cell Line | relative viability ([1]; first compound 0.02 µM) | relative viability ([1]; first compound 0.06325 µM) | relative viability ([1]; first compound 0.2 µM) | relative viability ([1]; first compound 0.6325 µM) | relative viability ([1]; first compound 2 µM) | relative viability ([2]; first compound 0.02 µM) | relative viability ([2]; first compound 0.06325 µM) | relative viability ([2]; first compound 0.2 µM) | relative viability ([2]; first compound 0.6325 µM) | relative viability ([2]; first compound 2 µM) | relative viability ([3]; first compound 0.02 µM) | relative viability ([3]; first compound 0.2 µM) | relative viability ([3]; first compound 0.6325 µM) | relative viability ([3]; first compound 2 µM) | relative viability ([3]; first compound 0.06325 µM) | relative viability ([4]; first compound 0.02 µM) | relative viability ([4]; first compound 0.06325 µM) | relative viability ([4]; first compound 0.2 µM) | relative viability ([4]; first compound 2 µM) | relative viability ([4]; first compound 0.6325 µM)
NCI-H522 | 0.831 | 1.04 | 0.927 | 0.922 | 1.05 | 0.961 | 0.924 | 1.11 | 1.03 | 0.909 | 0.839 | 0.73 | 0.848 | 0.942 | – | – | – | – | – | –
NCI-H596 | 0.734 | 0.541 | 0.594 | 0.637 | 0.564 | – | – | – | – | – | – | 1.18 | – | 0.858 | 1.12 | 0.935 | 0.957 | 1.01 | 0.81 | –
NCI-H661 | 0.751 | 0.78 | 0.826 | 0.817 | 0.839 | 0.383 | 0.444 | 0.397 | 0.41 | 0.47 | – | – | – | – | – | 1.09 | 0.987 | 1 | 1.17 | 0.978
NCI-H1299 | – | – | – | – | – | – | – | – | – | – | – | – | – | – | – | 0.923 | 0.965 | 0.991 | – | –
NCI-H1395 | 0.715 | 0.715 | 0.757 | 0.897 | 0.983 | 0.638 | 0.625 | 0.649 | 0.745 | 0.619 | 0.422 | 0.413 | 0.418 | 0.421 | 0.431 | – | – | – | – | –
NCI-H1563 | – | – | – | – | – | – | – | – | – | – | – | – | – | – | – | 0.833 | 0.878 | 0.805 | 0.906 | 0.946
NCI-H1648 | 0.58 | 0.465 | 0.356 | 0.338 | 0.442 | 0.257 | 0.328 | 0.239 | 0.279 | 0.308 | 0.702 | 0.694 | 0.715 | 0.828 | 0.814 | – | – | – | – | –
NCI-H1650 | 0.558 | 0.606 | 0.752 | 0.659 | 0.582 | 0.359 | 0.472 | 0.384 | 0.392 | 0.33 | – | – | – | – | – | 0.821 | 0.903 | 1.14 | 0.829 | 0.991
NCI-H1703 | – | – | – | – | – | – | – | – | – | – | 0.136 | 0.127 | 0.138 | 0.122 | 0.146 | 0.39 | 0.206 | 0.238 | 0.225 | 0.17
NCI-H1792 | – | – | – | – | – | 0.627 | 0.661 | 0.763 | 0.612 | 0.734 | 0.503 | 1.02 | 0.835 | 0.512 | 0.847 | 0.821 | 1.03 | 1.22 | 1.01 | 0.979
NCI-H1793 | – | 0.867 | 0.989 | 0.91 | 0.825 | – | 0.307 | 0.311 | 0.299 | 0.319 | – | 0.44 | 0.377 | 0.334 | 0.448 | – | – | – | – | –
NCI-H2009 | 0.725 | 0.765 | 0.828 | 0.746 | 0.723 | 0.183 | 0.241 | 0.212 | 0.231 | 0.25 | – | – | – | – | – | 1.01 | 1.03 | 1.16 | 1.04 | 1.13
NCI-H2023 | 0.575 | 0.585 | 0.906 | 0.812 | 0.488 | 0.361 | 0.424 | 0.456 | 0.437 | 0.343 | – | – | – | – | – | 0.628 | 0.67 | 0.792 | 0.667 | 0.654
NCI-H2228 | 0.412 | 0.705 | 0.626 | 1.03 | 0.764 | 0.829 | 0.942 | 1.15 | 1.16 | 0.693 | – | – | – | – | – | 0.495 | 0.553 | 0.435 | 0.351 | 0.583
NCI-H2342 | 0.622 | 0.918 | 0.794 | 0.724 | 0.889 | 0.446 | 0.541 | 0.566 | 0.549 | 0.579 | 0.48 | 0.649 | 0.505 | 0.556 | 0.601 | – | – | – | – | –
SK-LU-1 | 0.821 | 0.7 | 0.821 | 0.86 | 0.657 | 0.381 | 0.4 | 0.4 | 0.411 | 0.356 | – | – | – | – | – | 0.902 | 0.815 | 0.969 | 0.67 | 0.884
SK-MES-1 | 1.07 | 1.09 | 1.24 | 1.29 | 1.08 | 0.309 | 0.322 | 0.363 | 0.397 | 0.388 | – | – | – | – | – | 0.928 | 0.996 | 1.07 | 0.959 | 1.12
SW 1573 | 0.643 | 0.915 | 0.783 | 1.07 | 0.899 | 0.412 | 0.316 | 0.42 | 0.414 | 0.397 | – | – | – | – | – | 0.736 | 0.855 | – | 0.792 | 0.976
UMC-11 | 0.329 | 0.373 | 0.401 | 0.349 | 0.388 | 0.339 | 0.386 | 0.379 | 0.351 | 0.33 | – | – | – | – | – | 0.578 | 0.569 | 0.571 | 0.556 | 0.692
